In ChEMBL document CHEMBL1201862, “PubChem BioAssay data set” (2004):
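Where inhibition never reached the appropriate level, the endpoint shown equals the highest concentration tested. Otherwise, values were interpolated linearly from a five-concentration, 48-hour dose response in 96-well plates. At the GI50, growth is halved.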 Calls of active or inactive are those of the source. No stated cut-off is given here; in the data, active = GI50 up to about 1.1 µM and inactive = higher.

Columns and labels:
Assay in all cases: inhibition of tumour cell growth, NCI panel, 48 h
[1] = system: HOP-62
[2] = system: SF-295
[3] = system: HOP-92
[4] = system: UACC-62
[5] = system: DU-145
[6] = system: T47D
[7] = system: CAKI-1
[8] = system: OVCAR-3
[9] = system: NCI-H522
[10] = system: SNB-19
[11] = system: CCRF-CEM
[12] = system: M14
[13] = system: NCI/ADR-RES
[14] = system: Malme-3M
[15] = system: K562
[16] = system: IGROV-1
[17] = system: BT-549
[18] = system: PC-3
[19] = system: OVCAR-4
[20] = system: SK-MEL-2

Measured: GI50

Cc1cc(NCC2CC/C(=C\C=C\c3ccccc3)C2=O)no1 (configuration not stated)
inactive: [1] > 100 µM | [2] 40.8 µM | [3] 78.5 µM | [4] 32.1 µM | [5] > 100 µM | [6] > 100 µM | [7] > 100 µM | [8] > 100 µM | [9] > 100 µM | [10] > 100 µM | [11] > 100 µM | [12] > 100 µM | [13] 40.5 µM | [14] > 100 µM | [15] 92.7 µM | [16] > 100 µM | [17] > 100 µM | [18] > 100 µM | [19] > 100 µM

C=CC(CBr)CCC(Br)C(C)(C)Br (configuration not stated)
inactive: [1] > 10 µM | [2] > 10 µM | [3] > 10 µM | [5] > 10 µM | [6] > 10 µM | [7] > 10 µM | [8] > 10 µM | [9] > 10 µM | [10] > 10 µM | [11] > 10 µM | [12] > 10 µM | [13] > 10 µM | [14] > 10 µM | [15] > 10 µM | [16] > 10 µM | [17] > 10 µM | [20] > 10 µM | [18] > 10 µM | [19] > 10 µM

C1CSC[C@H]2COC[C@@H](CSCCS1)S2
inactive: [1] > 100 µM | [2] > 100 µM | [3] > 100 µM | [5] > 100 µM | [6] > 100 µM | [8] > 100 µM | [9] > 100 µM | [10] > 100 µM | [11] > 100 µM | [12] > 100 µM | [13] > 100 µM | [15] > 100 µM | [17] > 100 µM | [18] > 100 µM | [19] > 100 µM

CC(=S)NC=C(C(N)=O)C(N)=O
inactive: [1] > 100 µM | [2] > 100 µM | [3] 3.26 µM | [4] > 100 µM | [5] > 100 µM | [6] > 100 µM | [7] > 100 µM | [8] > 100 µM | [9] > 100 µM | [11] > 100 µM | [12] > 100 µM | [13] > 100 µM | [14] > 100 µM | [15] > 100 µM | [16] > 100 µM | [17] > 100 µM | [20] > 100 µM | [18] > 100 µM

CCN(CC)c1ccc2cc(C(N)=O)c(=N)oc2c1
inactive: [1] 38.6 µM | [3] 24 µM | [4] 30.8 µM | [5] 40.9 µM | [6] 23.7 µM | [7] 35.4 µM | [8] 31.6 µM | [10] 42.1 µM | [11] 31.2 µM | [12] 34.4 µM | [13] 53.1 µM | [15] > 100 µM | [16] 21.1 µM | [17] 52.5 µM | [20] 21.3 µM | [18] 26.3 µM | [19] 23.6 µM

Cc1c(/C=N/NC(=S)Nc2cccc(Cl)c2)c(=O)n(-c2ccccc2)n1C
inactive: [1] 13.9 µM | [2] 10.4 µM | [3] 13.3 µM | [4] 30.7 µM | [5] 24.1 µM | [6] 30.4 µM | [7] 13 µM | [10] 19.1 µM | [11] 22.6 µM | [12] 16.6 µM | [13] 4.35 µM | [15] 13.8 µM | [16] 18.2 µM | [17] 21.4 µM | [20] 18.6 µM | [18] 34.6 µM | [19] 16.4 µM

CC(C)(C)C(=O)OCC1CCC[N+]2(C)CCCCC12 (configuration not stated)
inactive: [1] > 100 µM | [2] > 100 µM | [3] > 100 µM | [4] > 100 µM | [5] > 100 µM | [6] > 100 µM | [7] > 100 µM | [8] > 100 µM | [10] > 100 µM | [11] > 100 µM | [12] > 100 µM | [13] > 100 µM | [14] > 100 µM | [15] > 100 µM | [16] > 100 µM | [17] > 100 µM | [20] > 100 µM | [18] > 100 µM | [19] > 100 µM

COC(=O)C1C(O)C(C)C(O)C(C)C=C(C)C2=C3C(=C(C)C(=O)c4c(O)c(c(C)c(OC(C)=O)c43)NC(=O)C(C)=C/C=C\C(C)C(O)C(C)C1O)OCO2 (configuration not stated)
inactive: [1] > 100 µM | [2] 51.6 µM | [3] 14.9 µM | [4] 28 µM | [5] 57.7 µM | [6] 31 µM | [8] 18.6 µM | [9] 16 µM | [10] > 100 µM | [11] 23.6 µM | [12] 25.2 µM | [13] 40.5 µM | [14] 16.2 µM | [15] 18.6 µM | [16] 42.1 µM | [17] 19.6 µM | [20] 23.7 µM | [18] 22.8 µM | [19] 25.3 µM

COc1cc2c(c(O)c1O)C(=O)C1CCC(=O)N1C2c1cccc2ccccc12 (configuration not stated)
inactive: [1] > 50 µM | [2] > 50 µM | [3] > 50 µM | [4] 49.9 µM | [5] > 50 µM | [6] > 50 µM | [8] > 50 µM | [9] > 50 µM | [10] > 50 µM | [11] > 50 µM | [12] > 50 µM | [13] > 50 µM | [15] > 50 µM | [16] > 50 µM | [17] > 50 µM | [20] > 50 µM | [18] > 50 µM | [19] > 50 µM

COc1ccc2c(c1)CC1COc3cc(OC)ccc3C1O2 (configuration not stated)
inactive: [1] > 100 µM | [2] 77.3 µM | [3] > 100 µM | [4] > 100 µM | [5] > 100 µM | [6] > 100 µM | [7] > 100 µM | [8] > 100 µM | [9] 55 µM | [11] > 100 µM | [12] > 100 µM | [13] 72.6 µM | [14] > 100 µM | [16] > 100 µM | [17] 44.8 µM | [20] > 100 µM | [18] 79.8 µM

CC(=O)NC(CCC(=O)C=[N+]=[N-])C(=O)O (configuration not stated)
inactive: [1] > 100 µM | [2] > 100 µM | [3] > 100 µM | [4] > 100 µM | [5] > 100 µM | [6] > 100 µM | [8] > 100 µM | [9] > 100 µM | [10] > 100 µM | [11] > 100 µM | [12] > 100 µM | [13] > 100 µM | [14] > 100 µM | [15] > 100 µM | [16] > 100 µM | [17] > 100 µM | [20] > 100 µM | [18] > 100 µM | [19] > 100 µM
